Laboratory results published in US9217014B2, “Antifungal agents and uses thereof” (Cidara Therapeutics, Inc., priority 2011, dated 2015).
Where two headings read alike, the source gives them in different places.

Test system: C. albicans R303
Assay: mouse candidiasis infection model, IP administration, kidney fungal burden
Format: in vivo
Settings: for log reduction at 0.5 mg/kg / log reduction at 1.5 mg/kg / log reduction at 4.5 mg/kg / log reduction at 5 mg/kg: Candida albicans, R303, ip, 24 h, read-out: Difference from 24-h control; for Mean log10 CFU/kidneys (±SEM) / Mean log10 CFU/kidneys (±SD): kidneys 24 h after infection; for log reduction at 5 mg/kg / Mean log10 CFU/kidneys (±SD): First run, IP 5 mg/kg; for Mean log10 CFU/kidneys (±SD): neutropenic mice; for overall performance in reducing C. albicans CFUs in the kidneys of the mice: conclusion over all runs
Description: The objective of these studies was to evaluate the efficacy of test compounds in the mouse candidiasis infection model. Amounts of test articles are uncorrected.
The strain, C. albicans R303 was transferred from frozen storage onto Sabauroud dextrose agar (SDA) plates and grown for ˜24 hr at 35° C. The inoculum was prepared by transferring colonies from the plate to phosphate buffered saline (PBS) and the concentration adjusted to approximately 10^6 CFU/mL with the aid of a spectrophotometer. The stock was diluted 1:9 to prepare the inoculum. Prior to each run the concentration was verified using the dilution plate count method.
Female CD-1 mice were used in this study. The animals were approximately seven-weeks-old at the start of the study and weighed about 15-30 g.
Mice were made neutropenic with IP injections of cyclophosphamide (150 mg/kg in 10 mL/kg) at 4 and 1 day before inoculation. Each animal was inoculated with the appropriate concentration by injecting 0.1 mL of inoculum into a tail vein. The test compounds were administered IP at 2 hr after infection.
In a typical procedure, the kidneys were collected from four mice in control group 1 (untreated) at 2 hr after infection, and from another four mice in control group 2 (untreated) at 24 hr after infection. Kidneys were removed aseptically from each mouse and were combined in a sterile tube. An aliquot (2 mL) of sterile PBS was added to each tube and the contents homogenized with a tissue homogenizer (Polytron 3100). Serial dilutions of the tissue homogenates were conducted and 0.1 mL aliquots were spread on SDA plates and the plates incubated at 35° C. overnight. The CFU/kidneys were determined from colony counts. Data were analyzed using one-way ANOVA with either the Tukey-Kramer Multiple Comparisons Test or Dunnett Test (GraphPad InStat version 3.06, GraphPad Software, San Diego, Calif.).
The data reported below are the average of four mice. Each run included a separate control and each is tabulated separately.

SMILES	overall performance in reducing C. albicans CFUs in the kidneys of the mice	log reduction at 0.5 mg/kg (Fourth run, IP 0.5 mg/kg)	log reduction at 1.5 mg/kg (Fourth run, IP 1.5 mg/kg)	Mean log10 CFU/kidneys (±SEM) (Fourth run, IP 0.5 mg/kg)	Mean log10 CFU/kidneys (±SEM) (Fourth run, IP 1.5 mg/kg)	further results
CC[C@H](C)C[C@H](C)CCCCCCCCC(=O)N[C@H]1C[C@@H](O)[C@@H](NCCN)NC(=O)[C@@H]2[C@@H](O)CCN2C(=O)[C@H]([C@H](O)CCN)NC(=O)[C@H]([C@H](O)[C@@H](O)c2ccc(O)cc2)NC(=O)[C@@H]2C[C@@H](O)CN2C(=O)[C@H]([C@@H](C)O)NC1=O [caspofungin, reference compound]						log reduction at 0.5 mg/kg (Third run, IP 0.5 mg/kg): 4.88; log reduction at 1.5 mg/kg (Third run, IP 1.5 mg/kg): 4.48; log reduction at 4.5 mg/kg (Third run, IP 4.5 mg/kg): 5.2; Mean log10 CFU/kidneys (±SEM) (Third run, IP 0.5 mg/kg): 0.33 ± 0.33 log10 CFU/kidneys; Mean log10 CFU/kidneys (±SEM) (Third run, IP 1.5 mg/kg): 0.73 ± 0.42 log10 CFU/kidneys; Mean log10 CFU/kidneys (±SEM) (Third run, IP 4.5 mg/kg): 0.00 ± 0.00 log10 CFU/kidneys
CCCCCOc1ccc(-c2ccc(-c3ccc(C(=O)N[C@H]4C[C@@H](O)C(OCCN(C)C)NC(=O)C5[C@@H](O)[C@@H](C)CN5C(=O)C([C@@H](C)O)NC(=O)C([C@H](O)[C@@H](O)c5ccc(O)cc5)NC(=O)C5C[C@@H](O)CN5C(=O)C([C@@H](C)O)NC4=O)cc3)cc2)cc1 (some centres unmarked) [compound 2]	performed moderately					log reduction at 5 mg/kg: 3.6; Mean log10 CFU/kidneys (±SD): 1.60 ± 0.35 log10 CFU/kidneys
CCCCCOc1ccc(-c2ccc(-c3ccc(C(=O)N[C@H]4C[C@@H](O)C(OCCNC)NC(=O)C5[C@@H](O)[C@@H](C)CN5C(=O)C([C@@H](C)O)NC(=O)C([C@H](O)[C@@H](O)c5ccc(O)cc5)NC(=O)C5C[C@@H](O)CN5C(=O)C([C@@H](C)O)NC4=O)cc3)cc2)cc1 (some centres unmarked) [compound 3]	performed moderately					log reduction at 5 mg/kg: 3.63; Mean log10 CFU/kidneys (±SD): 1.57 ± 0.20 log10 CFU/kidneys
CCCCCOc1ccc(-c2ccc(-c3ccc(C(=O)N[C@H]4C[C@@H](O)C(OCCN)NC(=O)C5[C@@H](O)[C@@H](C)CN5C(=O)C([C@@H](C)O)NC(=O)C([C@H](O)[C@@H](O)c5ccc(O)cc5)NC(=O)C5C[C@@H](O)CN5C(=O)C([C@@H](C)O)NC4=O)cc3)cc2)cc1 (some centres unmarked) [compound 4]	performed strongly					log reduction at 5 mg/kg: 4.47; log reduction at 0.5 mg/kg (Second run, IP 0.5 mg/kg): 1.5; log reduction at 4.5 mg/kg (Second run, IP 4.5 mg/kg): 4.22; Mean log10 CFU/kidneys (±SD): 0.73 ± 0.85 log10 CFU/kidneys; Mean log10 CFU/kidneys (±SEM) (Second run, IP 0.5 mg/kg): 3.38 ± 0.10 log10 CFU/kidneys; Mean log10 CFU/kidneys (±SEM) (Second run, IP 1.5 mg/kg): 0.65 ± 0.38 log10 CFU/kidneys; Mean log10 CFU/kidneys (±SEM) (Second run, IP 4.5 mg/kg): 0.65 ± 0.38 log10 CFU/kidneys
CCCCCOc1ccc(-c2ccc(-c3ccc(C(=O)N[C@H]4C[C@@H](O)C(OCCOCC[N+](C)(C)C)NC(=O)C5[C@@H](O)[C@@H](C)CN5C(=O)C([C@@H](C)O)NC(=O)C([C@H](O)[C@@H](O)c5ccc(O)cc5)NC(=O)C5C[C@@H](O)CN5C(=O)C([C@@H](C)O)NC4=O)cc3)cc2)cc1 (some centres unmarked) [compound 6]	performed strongly					log reduction at 0.5 mg/kg (Second run, IP 0.5 mg/kg): 0.13; log reduction at 1.5 mg/kg (Second run, IP 1.5 mg/kg): 3.27; log reduction at 4.5 mg/kg (Second run, IP 4.5 mg/kg): 4.87; Mean log10 CFU/kidneys (±SEM) (Second run, IP 0.5 mg/kg): 4.75 ± 0.19 log10 CFU/kidneys; Mean log10 CFU/kidneys (±SEM) (Second run, IP 1.5 mg/kg): 1.60 ± 0.17 log10 CFU/kidneys; Mean log10 CFU/kidneys (±SEM) (Second run, IP 4.5 mg/kg): 0.00 ± 0.00 log10 CFU/kidneys
CCCCCOc1ccc(-c2ccc(-c3ccc(C(=O)N[C@H]4C[C@@H](O)C(OCCNCCN)NC(=O)C5[C@@H](O)[C@@H](C)CN5C(=O)C([C@@H](C)O)NC(=O)C([C@H](O)[C@@H](O)c5ccc(O)cc5)NC(=O)C5C[C@@H](O)CN5C(=O)C([C@@H](C)O)NC4=O)cc3)cc2)cc1 (some centres unmarked) [compound 7]	performed strongly	0.78	3.55	4.33 ± 0.17 log10 CFU/kidneys	1.55 ± 0.19 log10 CFU/kidneys	
CCCCCOc1ccc(-c2ccc(-c3ccc(C(=O)N[C@H]4C[C@@H](O)C(NCCOC)NC(=O)C5[C@@H](O)[C@@H](C)CN5C(=O)C([C@@H](C)O)NC(=O)C([C@H](O)[C@@H](O)c5ccc(O)cc5)NC(=O)C5C[C@@H](O)CN5C(=O)C([C@@H](C)O)NC4=O)cc3)cc2)cc1 (some centres unmarked) [compound 8]	performed poorly	0.32	1.66	4.78 ± 0.15 log10 CFU/kidneys	3.45 ± 0.37 log10 CFU/kidneys	
CCCCCOc1ccc(-c2ccc(-c3ccc(C(=O)N[C@H]4C[C@@H](O)C(NCCOCCOC)NC(=O)C5[C@@H](O)[C@@H](C)CN5C(=O)C([C@@H](C)O)NC(=O)C([C@H](O)[C@@H](O)c5ccc(O)cc5)NC(=O)C5C[C@@H](O)CN5C(=O)C([C@@H](C)O)NC4=O)cc3)cc2)cc1 (some centres unmarked) [compound 9]	performed poorly	0.07	1.02	5.04 ± 0.13 log10 CFU/kidneys	4.09 ± 0.23 log10 CFU/kidneys	
CCCCCOc1ccc(-c2ccc(-c3ccc(C(=O)N[C@H]4C[C@@H](O)C(NCCOCCOCCOCCOC)NC(=O)C5[C@@H](O)[C@@H](C)CN5C(=O)C([C@@H](C)O)NC(=O)C([C@H](O)[C@@H](O)c5ccc(O)cc5)NC(=O)C5C[C@@H](O)CN5C(=O)C([C@@H](C)O)NC4=O)cc3)cc2)cc1 (some centres unmarked) [compound 10]	performed poorly	0.21	0.01	4.89 ± 0.06 log10 CFU/kidneys	5.09 ± 0.11 log10 CFU/kidneys	
CCCCCOc1ccc(-c2ccc(-c3ccc(C(=O)N[C@H]4C[C@@H](O)C(NCCOCCO)NC(=O)C5[C@@H](O)[C@@H](C)CN5C(=O)C([C@@H](C)O)NC(=O)C([C@H](O)[C@@H](O)c5ccc(O)cc5)NC(=O)C5C[C@@H](O)CN5C(=O)C([C@@H](C)O)NC4=O)cc3)cc2)cc1 (some centres unmarked) [compound 11]	performed moderately	0.29	2.13	4.82 ± 0.20 log10 CFU/kidneys	2.98 ± 0.03 log10 CFU/kidneys	
CCCCCOc1ccc(-c2ccc(-c3ccc(C(=O)N[C@H]4C[C@@H](O)C(NCCOCCN)NC(=O)C5[C@@H](O)[C@@H](C)CN5C(=O)C([C@@H](C)O)NC(=O)C([C@H](O)[C@@H](O)c5ccc(O)cc5)NC(=O)C5C[C@@H](O)CC5C(=O)C([C@@H](C)O)NC4=O)cc3)cc2)cc1 (some centres unmarked) [compound 12]	performed strongly	1.9	3.5	3.20 ± 0.11 log10 CFU/kidneys	1.60 ± 0.09 log10 CFU/kidneys	
CCCCCOc1ccc(-c2ccc(-c3ccc(C(=O)N[C@H]4C[C@@H](O)C(NCCOCCOCCN)NC(=O)C5[C@@H](O)[C@@H](C)CN5C(=O)C([C@@H](C)O)NC(=O)C([C@H](O)[C@@H](O)c5ccc(O)cc5)NC(=O)C5C[C@@H](O)CC5C(=O)C([C@@H](C)O)NC4=O)cc3)cc2)cc1 (some centres unmarked) [compound 13]	performed moderately	2.29	2.8	2.81 ± 0.23 log10 CFU/kidneys	2.31 ± 0.19 log10 CFU/kidneys	
